# Measured values taken from patent US8455688B2, “HDAC inhibitors” (Lixte Biotechnology, Inc., priority 2007, dated 2013).
# Entries after “also recorded” stand apart in the source; their conditions may differ. Read-outs that look alike come from different tables or passages of the source.
# Legend:
# [1] = test system: cell line U-87; experiment: Activity against the cell line U-87; assay type: cell-based, human; settings: potency on an equimolar basis
# [2] = test system: C. glabrata; experiment: Broth dilution antifungal susceptibility testing, C. glabrata; assay type: cell-based, Candida glabrata; settings: Nakaseomyces glabratus, 50% reduction in turbidity, read-out: minimum inhibitory concentration (MIC)
# Method: (§1) A total of 23 isolates were tested to include 3 Candida albicans, 3 Candida glabrata, 3 Cryptococcus neoformans, 3 Aspergillus fumigatus, 3 Rhizopus oryzae, 3, Fusarium solani, 3 Pseudallescheria boydii, and 2 […]. All isolates were clinical isolates submitted to the Fungus Testing Laboratory for evaluation. Antifungal susceptibility testing was accomplished according to the methods outlined in the National Committee for Clinical Laboratory Standards, M-27A2, Reference Method for Broth Dilution Antifungal Susceptibility Testing of Yeasts; Approved Standard, and M38-A “Reference Method for Broth Dilution Antifungal Susceptibility Testing of Conidium-Forming Filamentous Fungi; Approved Standard”. This includes testing in RPMI-1640 with glutamine and without bicarbonate, an inoculum size of 0.5-2.5×10^3 for yeasts or […] for moulds, and incubation at 35° C. for 24 and 48 hours. […] Drug concentrations were 0.125-64 μg/ml. A 10 mg portion of each powder was weighed out and added to 1 ml of 100% DMSO for compound 205. The resulting concentration of […] was diluted to a working concentration of 6400 μg/ml for compound 205 in 100% DMSO. All subsequent dilutions were also made using the respective diluents. Final testing concentrations ranged from 0.125-64 μg/ml. The NCCLS recommended medium RPMI-1640 (Hardy Diagnostics, Santa Monica, Calif.) was utilized as the test medium. All isolates in this study were clinical isolates received in the Fungus Testing Laboratory for standard antifungal susceptibility testing and/or identification. Isolates, which were not sent for identification, were confirmed to assure testing integrity. A total of 23 were tested to include 3 Candida albicans, 3 Candida glabrata, 3 Cryptococcus neoformans, 3 Aspergillus fumigatus, 3 Rhizopus oryzae, 3, Fusarium solani, 3 Pseudallescheria boydii, and 2 […]. Minimum inhibitory concentrations (MIC) were determined at the first 24-hour interval where growth could be determined in the drug-free control tube.
# [3] = test system: F. solani; experiment: Broth dilution antifungal susceptibility testing, F. solani; assay type: cell-based; settings: Fusarium solani, 80% inhibition, read-out: minimum inhibitory concentration (MIC)
# Method: as §1
# [4] = test system: C. neoformans; experiment: Broth dilution antifungal susceptibility testing, C. neoformans; assay type: cell-based; settings: Cryptococcus neoformans, 50% reduction in turbidity, read-out: minimum inhibitory concentration (MIC)
# Method: as §1
# [5] = test system: S. apiospermum; experiment: Broth dilution antifungal susceptibility testing, S. apiospermum; assay type: cell-based, Pseudallescheria boydii; settings: Scedosporium apiospermum, 80% inhibition, read-out: minimum inhibitory concentration (MIC)
# Method: as §1
# [6] = test system: R. arrhizus; experiment: Broth dilution antifungal susceptibility testing, R. arrhizus; assay type: cell-based, Rhizopus oryzae; settings: Rhizopus arrhizus, 80% inhibition, read-out: minimum inhibitory concentration (MIC)
# Method: as §1
# [7] = test system: U87 GBM xenografts; experiment: Inhibition of U87 GBM xenografts; settings: in vivo
# [8] = test system: CP Control; experiment: Broth dilution antifungal susceptibility testing, CP Control; assay type: cell-based; settings: read-out: minimum inhibitory concentration (MIC)
# Method: as §1
# [9] = test system: T. rubrum; experiment: Broth dilution antifungal susceptibility testing, T. rubrum; assay type: cell-based, Trichophyton rubrum; settings: Trichophyton rubrum, 80% inhibition, read-out: minimum inhibitory concentration (MIC)
# Method: as §1
# [10] = test system: A. fumigatus; experiment: Broth dilution antifungal susceptibility testing, A. fumigatus; assay type: cell-based, Aspergillus fumigatus; settings: Aspergillus fumigatus, 80% inhibition, read-out: minimum inhibitory concentration (MIC)
# Method: as §1
# [11] = test system: C. albicans; experiment: Broth dilution antifungal susceptibility testing, C. albicans; assay type: cell-based, Candida albicans; settings: Candida albicans, 50% reduction in turbidity, read-out: minimum inhibitory concentration (MIC)
# Method: as §1
# [12] = test system: GBM xenograft; experiment: GBM xenograft tumor volume in SCID mice; assay type: in vivo; settings: for inhibition of GBM xenograft tumor volume: tumor cells implanted subcutaneously, 0, 7, 14, 21 and 28 days
# [13] = 24 h, isolate 07-2964, 24 hours
# [14] = 24 h, isolate 07-2965, 24 hours
# [15] = 24 h, isolate 07-3013, 24 hours
# [16] = 48 h, isolate 07-2964, 48 hours
# [17] = 48 h, isolate 07-2965, 48 hours
# [18] = 48 h, isolate 07-3013, 48 hours
# [19] = 24 h, isolate 07-1399, 24 hours
# [20] = 24 h, isolate 07-1755, 24 hours
# [21] = 24 h, isolate 07-1867, 24 hours
# [22] = 48 h, isolate 07-1399, 48 hours
# [23] = 48 h, isolate 07-1755, 48 hours
# [24] = 48 h, isolate 07-1867, 48 hours
# [25] = 24 h, isolate 07-2665, 24 hours
# [26] = 24 h, isolate 07-2737, 24 hours
# [27] = 24 h, isolate 07-2829, 24 hours
# [28] = 48 h, isolate 07-2665, 48 hours
# [29] = 48 h, isolate 07-2737, 48 hours
# [30] = 48 h, isolate 07-2829, 48 hours
# [31] = 24 h, isolate 07-1333, 24 hours
# [32] = 24 h, isolate 07-1502, 24 hours
# [33] = 24 h, isolate 07-1601, 24 hours
# [34] = 48 h, isolate 07-1333, 48 hours
# [35] = 48 h, isolate 07-1502, 48 hours
# [36] = 48 h, isolate 07-1601, 48 hours
# [37] = 24 h, isolate 07-1870, 24 hours
# [38] = 24 h, isolate 07-2044, 24 hours
# [39] = 24 h, isolate 07-2078, 24 hours
# [40] = 48 h, isolate 07-1870, 48 hours
# [41] = 48 h, isolate 07-2044, 48 hours
# [42] = 48 h, isolate 07-2078, 48 hours
# [43] = 24 h, isolate 07-1743, 24 hours
# [44] = 24 h, isolate 07-2055, 24 hours
# [45] = 48 h, isolate 07-1743, 48 hours
# [46] = 48 h, isolate 07-2055, 48 hours
# [47] = 24 h, isolate 06-4126, 24 hours
# [48] = 24 h, isolate 07-2039, 24 hours
# [49] = 48 h, isolate 06-4126, 48 hours
# [50] = 48 h, isolate 07-2039, 48 hours
# [51] = 24 h, isolate 07-3006, 24 hours
# [52] = 24 h, isolate 07-3011, 24 hours
# [53] = 24 h, isolate 07-3012, 24 hours
# [54] = 48 h, isolate 07-3006, 48 hours
# [55] = 48 h, isolate 07-3011, 48 hours
# [56] = 48 h, isolate 07-3012, 48 hours
smiles,measurement,setting,value
"O=C(CCCCCNC(=O)c1ccccc1S)Nc1cccnc1 [Compound 205, 2-Mercapto-N-[5-(pyridin-3-ylcarbamoyl)pentyl]benzamide]",activity against the cell line U-87,[1],most potent on an equimolar basis
same,MIC,[2]; [13],32 µg/mL
same,MIC,[2]; [14],32 µg/mL
same,MIC,[2]; [15],32 µg/mL
same,MIC,[2]; [16],64 µg/mL
same,MIC,[2]; [17],64 µg/mL
same,MIC,[2]; [18],64 µg/mL
same,MIC,[3]; [19],64 µg/mL
same,MIC,[3]; [20],> 64 µg/mL
same,MIC,[3]; [21],32 µg/mL
same,MIC,[3]; [22],> 64 µg/mL
same,MIC,[3]; [23],> 64 µg/mL
same,MIC,[3]; [24],64 µg/mL
same,MIC,[4]; [25],32 µg/mL
same,MIC,[4]; [26],32 µg/mL
same,MIC,[4]; [27],32 µg/mL
same,MIC,[4]; [28],32 µg/mL
same,MIC,[4]; [29],32 µg/mL
same,MIC,[4]; [30],32 µg/mL
same,MIC,[5]; [31],8 µg/mL
same,MIC,[5]; [32],32 µg/mL
same,MIC,[5]; [33],2 µg/mL
same,MIC,[5]; [34],16 µg/mL
same,MIC,[5]; [35],64 µg/mL
same,MIC,[5]; [36],4 µg/mL
same,MIC,[6]; [37],> 64 µg/mL
same,MIC,[6]; [38],64 µg/mL
same,MIC,[6]; [39],64 µg/mL
same,MIC,[6]; [40],> 64 µg/mL
same,MIC,[6]; [41],64 µg/mL
same,MIC,[6]; [42],> 64 µg/mL
same,inhibition of U87 GBM xenografts compared to control,[7],significant inhibition
same,MIC,[8]; 24 hours,32 µg/mL
same,MIC,[8]; 48 hours,32 µg/mL
same,MIC,[9]; [43],16 µg/mL
same,MIC,[9]; [44],8 µg/mL
same,MIC,[9]; [45],32 µg/mL
same,MIC,[9]; [46],16 µg/mL
same,MIC,"[10]; 24 h, isolate 05-388, 24 hours",16 µg/mL
same,MIC,[10]; [47],16 µg/mL
same,MIC,[10]; [48],8 µg/mL
same,MIC,"[10]; 48 h, isolate 05-388, 48 hours",> 64 µg/mL
same,MIC,[10]; [49],> 64 µg/mL
same,MIC,[10]; [50],> 64 µg/mL
same,MIC,[11]; [51],32 µg/mL
same,MIC,[11]; [52],32 µg/mL
same,MIC,[11]; [53],32 µg/mL
same,MIC,[11]; [54],64 µg/mL
same,MIC,[11]; [55],> 64 µg/mL
same,MIC,[11]; [56],64 µg/mL
same,activity relative to an equimolar dose of SAHA,"[12]; GBM xenograft, subcutaneous","more active than, an equimolar dose of SAHA"
same,inhibition of GBM xenograft tumor volume,[12],inhibited the growth of GBM xenograft tumor volume; also recorded: active
"CN(C)c1ccc(NC(=O)CCCCCNC(=O)c2ccccc2S)cc1 [Compound 206, 2-Mercapto-N-[5-(4-dimethylamino-3-yl-carbamoyl)pentyl]benzamide]",activity against the cell line U-87,[1],most potent on an equimolar basis
same,MIC,[2]; [13],32 µg/mL
same,MIC,[2]; [14],32 µg/mL
same,MIC,[2]; [15],32 µg/mL
same,MIC,[2]; [16],> 64 µg/mL
same,MIC,[2]; [17],> 64 µg/mL
same,MIC,[2]; [18],> 64 µg/mL
same,MIC,[3]; [19],> 64 µg/mL
same,MIC,[3]; [20],> 64 µg/mL
same,MIC,[3]; [21],64 µg/mL
same,MIC,[3]; [22],> 64 µg/mL
same,MIC,[3]; [23],> 64 µg/mL
same,MIC,[3]; [24],> 64 µg/mL
same,MIC,[4]; [25],16 µg/mL
same,MIC,[4]; [26],16 µg/mL
same,MIC,[4]; [27],64 µg/mL
same,MIC,[4]; [28],32 µg/mL
same,MIC,[4]; [29],32 µg/mL
same,MIC,[4]; [30],64 µg/mL
same,MIC,[5]; [31],1 µg/mL
same,MIC,[5]; [32],8 µg/mL
same,MIC,[5]; [33],2 µg/mL
same,MIC,[5]; [34],2 µg/mL
same,MIC,[5]; [35],16 µg/mL
same,MIC,[5]; [36],2 µg/mL
same,MIC,[6]; [37],32 µg/mL
same,MIC,[6]; [38],32 µg/mL
same,MIC,[6]; [39],> 64 µg/mL
same,MIC,[6]; [40],64 µg/mL
same,MIC,[6]; [41],64 µg/mL
same,MIC,[6]; [42],> 64 µg/mL
same,inhibition of U87 GBM xenografts compared to control,[7],significant inhibition
same,MIC,[8]; 24 hours,8 µg/mL
same,MIC,[8]; 48 hours,64 µg/mL
same,MIC,[9]; [43],0.25 µg/mL
same,MIC,[9]; [44],0.25 µg/mL
same,MIC,[9]; [45],0.25 µg/mL
same,MIC,[9]; [46],0.25 µg/mL
same,MIC,"[10]; 24 h, isolate 05-388, 24 hours",16 µg/mL
same,MIC,[10]; [47],8 µg/mL
same,MIC,[10]; [48],8 µg/mL
same,MIC,"[10]; 48 h, isolate 05-388, 48 hours",> 64 µg/mL
same,MIC,[10]; [49],64 µg/mL
same,MIC,[10]; [50],> 64 µg/mL
same,MIC,[11]; [51],64 µg/mL
same,MIC,[11]; [52],64 µg/mL
same,MIC,[11]; [53],> 64 µg/mL
same,MIC,[11]; [54],> 64 µg/mL
same,MIC,[11]; [55],> 64 µg/mL
same,MIC,[11]; [56],> 64 µg/mL
same,inhibition of GBM xenograft tumor volume,[12],inhibited the growth of GBM xenograft tumor volume
